Measurements as given in patent publication US8580829B2 (Boehringer Ingelheim International GmbH, priority 2010, dated 2013).
Like-named read-outs stand apart in the source and are kept apart here.

Columns and labels:
[1] = target: T1, recombinant human FLAP protein (Homo sapiens, UniProt P20292); assay: FLAP binding assay (Scintillation Proximity Assay, displacement of [125I]L-691,831); details: recombinant human FLAP membranes, [125I]L-691,831 probe; read-out: FLAP SPA IC50
T1 construct: made in house; host or cells: Sf9 insect cells (100,000 x g membrane fraction)
T1 sequence (P20292 1-161): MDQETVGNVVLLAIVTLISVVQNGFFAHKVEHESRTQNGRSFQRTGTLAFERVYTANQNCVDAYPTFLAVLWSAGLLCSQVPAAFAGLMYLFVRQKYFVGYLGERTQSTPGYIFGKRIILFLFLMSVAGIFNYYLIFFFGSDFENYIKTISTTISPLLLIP
Experimental: Cell pellets produced from sf9 insect cells expressing recombinant human FLAP protein are resuspended in buffer A [15 mM Tris-HCl (pH 7.5), 2 mM MgCl2, 0.3 mM EDTA, 1 mM PMSF]. The cells are lysed with a Dounce homogenizer and the material is centrifuged at 10,000×g for 10 minutes. The supernatant is then collected and centrifuged at 100,000×g for 60 minutes. To prepare membrane protein for an assay, an aliquot of the 100,000×g pellet is resuspended in 1 ml of buffer A, Dounce homogenized, and finally subjected to polytron mixing (30 seconds). Membrane protein (25 μl, 5 μg) is mixed with WGA SPA beads (Amersham) and stirred for 1 h.

[2] = tested on: synthesis of LTB4 in human whole blood; assay: human whole blood LTB4 production inhibition assay; type: cell-based; details: heparinized human whole blood, calcimycin 20 μM, read-out: hWB LTB4 IC50
Experimental: Compounds are additionally tested in a human whole blood assay to determine their ability to inhibit the synthesis of LTB4 in a cellular system. Compounds are combined with heparinized human whole blood and incubated for 15 minutes at 37° C. Calcimycin (20 μM final, prepared in phosphate-buffered saline, pH 7.4) is then added and the mixture is incubated for another 30 minutes at 37° C. The samples are centrifuged for 5 min at low speed (1500×g) and the plasma layer is removed. Plasma LTB4 concentrations are then measured using an antibody-based homogenous time-resolved fluorescence method (CisBio, Bedford, Mass.).

SMILES | IC50 [1] | IC50 ([2]; Homo sapiens) | IC50 [2]
CN(CCO)c1ccc(-c2nc(C3(c4ccc(-c5cnc(N)nc5)cc4)CCC3)no2)nn1 [Example 113, 2-{[6-(3-{1-[4-(2-Amino-pyrimidin-5-yl)-phenyl]-cyclobutyl}-1,2,4-oxadiazol-5-yl)-pyridazin-3-yl]-methyl-amino}-ethanol] | 1.6 nM | 100 nM | –
CN(C)C(=O)Cn1cc(-c2nc(C3(c4ccc(-c5cnc(N)nc5)cc4)CCC3)no2)cn1 [Example 188, 2-[4-(3-{1-[4-(2-amino-pyrimidin-5-yl)-phenyl]-cyclobutyl}-1,2,4-oxadiazol-5-yl)-pyrazol-1-yl]-N,N-dimethyl-acetamide] | 6.2 nM | 81 nM | –
Nc1ncc(-c2ccc(C3(c4noc(C(=O)N5CCCC5)n4)CCC3)cc2)cn1 [Example 11, (3-{1-[4-(2-Amino-pyrimidin-5-yl)-phenyl]-cyclobutyl}-1,2,4-oxadiazol-5-yl)-pyrrolidin-1-yl-methanone] | 120 nM | 1300 nM | –
Nc1ncc(-c2ccc(C3(c4noc(-c5cnn(CCN6CCCC6)c5)n4)CCC3)cc2)cn1 [Example 253, 5-[4-(1-{5-[1-(2-Pyrrolidin-1-yl-ethyl)-1H-pyrazol-4-yl]-[1,2,4]oxadiazol-3-yl}-cyclobutyl)-phenyl]-pyrimidin-2-ylamine] | 8.1 nM | 75 nM | –
C[C@@H]1CCC[C@H](C)N1c1nc(C2(c3ccc(-c4cnc(N)nc4)cc3)CCC2)no1 [Example 306, 5-(4-{1-[5-(cis-2,6-Dimethyl-piperidin-1-yl)-[1,2,4]oxadiazol-3-yl]-cyclobutyl}-phenyl)-pyrimidin-2-ylamine] | 12 nM | 580 nM | –
CN(C)C(=O)Cn1cc(-c2nc(C3(c4ccc(-c5cnc(N)nc5)cc4)CC3)no2)cn1 [Example 268, 2-[4-(3-{1-[4-(2-Amino-pyrimidin-5-yl)-phenyl]-cyclopropyl}-[1,2,4]oxadiazol-5-yl)-pyrazol-1-yl]-N,N-dimethyl-acetamide] | 670 nM | > 5000 nM | –
Nc1ncc(-c2ccc(C3(c4noc(-c5cnc(N6CCNCC6)cn5)n4)CCC3)cc2)cn1 [Example 214, 5-(4-{1-[5-(3,4,5,6-Tetrahydro-2H-[1,2′]bipyrazinyl-5′-yl)-[1,2,4]oxadiazol-3-yl]-cyclobutyl}-phenyl)-pyrimidin-2-ylamine] | 4 nM | – | 150 nM
CCN(CC)C(=O)Cn1cc(-c2nc(C3(c4ccc(-c5cnc(N)nc5)cc4)CCC3)no2)cn1 [Example 131, 2-[4-(3-{1-[4-(2-Amino-pyrimidin-5-yl)-phenyl]-cyclobutyl]-1,2,4-oxadiazol-5-yl)-pyrazol-1-yl]-N,N-diethyl-acetamide] | 3.9 nM | 88 nM | –
CS(=O)(=O)CCn1cc(-c2nc(C3(c4ccc(-c5cnc(N)nc5)cc4)CCC3)no2)cn1 [Example 231, 5-[4-(1-{5-[1-(2-Methanesulfonyl-ethyl)-1H-pyrazol-4-yl]-[1,2,4]oxadiazol-3-yl}-cyclobutyl)-phenyl]-pyrimidin-2-ylamine] | 2.3 nM | 61 nM | –
Nc1ncc(-c2ccc(C3(c4noc(-c5cnn(C6COC6)c5)n4)CC3)cc2)cn1 [Example 255, 5-(4-{1-[5-(1-Oxetan-3-yl-1H-pyrazol-4-yl)-[1,2,4]oxadiazol-3-yl]-cyclopropyl}-phenyl)-pyrimidin-2-ylamine] | 150 nM | 1900 nM | –
Nc1ncc(-c2ccc(C3(c4noc(-c5cc[nH]n5)n4)CCC3)cc2)cn1 [Example 93, 5-(4-{1-[5-(1H-Pyrazol-3-yl)-1,2,4-oxadiazol-3-yl]-cyclobutyl}-phenyl)-pyrimidin-2-ylamine] | 2.4 nM | 160 nM | –
CCNc1cnc(-c2nc(C3(c4ccc(-c5cnc(N)nc5)cc4)CCC3)no2)cn1 [Example 63, 5-(4-{1-[5-(5-Ethylamino-pyrazin-2-yl)-1,2,4-oxadiazol-3-yl]-cyclobutyl}-phenyl)-pyrimidin-2-ylamine] | 1 nM | 25 nM | –
Nc1ncc(-c2ccc(C3(c4noc(-c5cccnc5)n4)CCOCC3)cc2)cn1 [Example 146, 5-{4-[4-(5-Pyridin-3-yl-1,2,4-oxadiazol-3-yl)-tetrahydro-pyran-4-yl]-phenyl}-pyrimidin-2-ylamine] | 27 nM | 840 nM | –
CC(CN(C)C)n1cc(-c2nc(C3(c4ccc(-c5cnc(N)nc5)cc4)CCC3)no2)cn1 (stereo not drawn) [Example 249, 5-[4-(1-{5-[1-(2-Dimethylamino-1-methyl-ethyl)-1H-pyrazol-4-yl]-[1,2,4]oxadiazol-3-yl}-cyclobutyl)-phenyl]-pyrimidin-2-ylamine] | 7.8 nM | 69 nM | –
CS(=O)(=O)N1CCN(c2cnc(-c3nc(C4(c5ccc(-c6cnc(N)nc6)cc5)CCC4)no3)cn2)CC1 [Example 202, 5-(4-{1-[5-(4-Methanesulfonyl-3,4,5,6-tetrahydro-2H-1,2′-bipyrazinyl-5′-yl)-1,2,4-oxadiazol-3-yl]-cyclobutyl}-phenyl)-pyrimidin-2-ylamine] | 2.6 nM | 70 nM | –
Cc1ncccc1-c1nc(C2(c3ccc(-c4cnc(N)nc4)cc3)CCC2)no1 [Example 167, 5-(4-{1-[5-(2-Methyl-pyridin-3-yl)-1,2,4-oxadiazol-3-yl]-cyclobutyl}-phenyl)-pyrimidin-2-ylamine] | 5.1 nM | 660 nM | –
Nc1ccc(-c2ccc(C3(c4noc(-c5cnc(N6CCNCC6)cn5)n4)CCC3)cc2)cn1 [Example 296, 5-(4-{1-[5-(3,4,5,6-Tetrahydro-2H-[1,2′]bipyrazinyl-5′-yl)-[1,2,4]oxadiazol-3-yl]-cyclobutyl}-phenyl)-pyridin-2-ylamine] | 2.1 nM | 230 nM | –
Nc1ncc(-c2ccc(C3(c4noc(-c5cnc(N6CCNC(=O)C6)cn5)n4)CCC3)cc2)cn1 [Example 201, 5′-(3-{1-[4-(2-Amino-pyrimidin-5-yl)-phenyl]-cyclobutyl}-1,2,4-oxadiazol-5-yl)-5,6-dihydro-4H-1,2′-bipyrazinyl-3-one] | 2.3 nM | 400 nM | –
Cc1n[nH]cc1-c1nc(C2(c3ccc(-c4cnc(N)nc4)cc3)CCC2)no1 [Example 6, 5-(4-{1-[5-(3-Methyl-1H-pyrazol-4-yl)-1,2,4-oxadiazol-3-yl]-cyclobutyl}-phenyl)-pyrimidin-2-ylamine] | 1.1 nM | 150 nM | –

Further lines, results first:

IC50 [1] | IC50 ([2]; Homo sapiens) | IC50 [2] | SMILES
3 nM | 220 nM | – | Nc1ncc(-c2ccc(C3(c4noc(-c5ccc(C(=O)N6CCC6)nc5)n4)CCC3)cc2)cn1 [Example 70, [5-(3-{1-[4-(2-Amino-pyrimidin-5-yl)-phenyl]-cyclobutyl}-1,2,4-oxadiazol-5-yl)-pyridin-2-yl]-azetidin-1-yl-methanone]
4.3 nM | 260 nM | – | CC(C)(O)c1ccc(-c2nc(C3(c4ccc(-c5cnc(N)nc5)cc4)CCC3)no2)cn1 [Example 172]
18 nM | 120 nM | – | Nc1ncc(-c2ccc(C3(c4noc(N5CCC(O)CC5)n4)CCC3)cc2)cn1 [Example 284, 1-(3-{1-[4-(2-Amino-pyrimidin-5-yl)-phenyl]-cyclobutyl}-[1,2,4]oxadiazol-5-yl)-piperidin-4-ol]
3.5 nM | – | 150 nM | Nc1ncc(-c2ccc(C3(c4noc(-c5cnc(N6CCNCC6)cn5)n4)CCC3)cc2)cn1 [Example 307, 5-(4-{1-[5-(3,4,5,6-Tetrahydro-2H-1,2′-bipyrazinyl-5′-yl)-1,2,4-oxadiazol-3-yl]-cyclobutyl}-phenyl)-pyrimidin-2-ylamine]
5.7 nM | – | > 5000 nM | COC(=O)[C@@H]1CN(c2cnc(-c3nc(C4(c5ccc(-c6cnc(N)nc6)cc5)CCC4)no3)cn2)CCN1 [Example 126, (S)-5′-(3-{1-[4-(2-Amino-pyrimidin-5-yl)-phenyl]-cyclobutyl}-1,2,4-oxadiazol-5-yl)-3,4,5,6-tetrahydro-2H-1,2′-bipyrazinyl-3-carboxylic acid methyl ester]
38 nM | 1700 nM | – | Cn1ccnc1-c1nc(C2(c3ccc(-c4cnc(N)nc4)cc3)CCC2)no1 [Example 245, 5-(4-{1-[5-(1-Methyl-1H-imidazol-2-yl)-[1,2,4]oxadiazol-3-yl]-cyclobutyl}-phenyl)-pyrimidin-2-ylamine]
4.3 nM | 320 nM | – | CNC(=O)c1ccc(-c2nc(C3(c4ccc(-c5cnc(N)nc5)cc4)CCC3)no2)cn1 [Example 28, 5-(3-{1-[4-(2-Amino-pyrimidin-5-yl)-phenyl]-cyclobutyl}-1,2,4-oxadiazol-5-yl)-pyridine-2-carboxylic acid methylamide]
1.3 nM | 63 nM | – | Nc1ncc(-c2ccc(C3(c4noc(-c5ccc(N6CC[C@@H](O)C6)nc5)n4)CCC3)cc2)cn1 [Example 103, (R)-1-[5-(3-{1-[4-(2-Amino-pyrimidin-5-yl)-phenyl]-cyclobutyl}-1,2,4-oxadiazol-5-yl)-pyridin-2-yl]-pyrrolidin-3-ol]
